pIC50: −log10 of the molar value.
How the values were obtained:
[1] = target: T1, Inhibitor of nuclear factor kappa-B kinase subunit alpha (Homo sapiens) (UniProt O15111); test: Inhibition of human IKKa at 500 nM by HotSpot assay relative to control
T1 sequence (whole entry): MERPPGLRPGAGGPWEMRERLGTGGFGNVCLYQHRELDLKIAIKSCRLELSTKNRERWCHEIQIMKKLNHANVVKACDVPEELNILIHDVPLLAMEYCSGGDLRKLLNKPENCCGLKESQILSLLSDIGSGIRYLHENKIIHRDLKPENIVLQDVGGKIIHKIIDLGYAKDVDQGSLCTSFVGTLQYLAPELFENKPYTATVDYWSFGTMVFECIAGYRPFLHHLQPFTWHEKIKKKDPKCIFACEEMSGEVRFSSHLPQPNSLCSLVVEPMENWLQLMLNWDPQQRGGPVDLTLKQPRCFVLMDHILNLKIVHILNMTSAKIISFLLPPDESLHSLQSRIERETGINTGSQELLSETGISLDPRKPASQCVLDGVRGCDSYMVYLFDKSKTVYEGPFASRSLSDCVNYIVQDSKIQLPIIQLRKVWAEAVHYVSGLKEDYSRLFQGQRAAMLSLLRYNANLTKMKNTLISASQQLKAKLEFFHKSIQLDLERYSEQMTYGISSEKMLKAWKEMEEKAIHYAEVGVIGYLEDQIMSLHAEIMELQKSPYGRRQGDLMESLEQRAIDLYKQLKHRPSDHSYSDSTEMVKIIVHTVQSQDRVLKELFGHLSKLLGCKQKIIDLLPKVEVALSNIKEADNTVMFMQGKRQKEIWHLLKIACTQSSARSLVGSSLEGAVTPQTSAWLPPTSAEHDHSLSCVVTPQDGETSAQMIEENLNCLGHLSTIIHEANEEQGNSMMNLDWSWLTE

[2] = target: T2, Mitogen-activated protein kinase kinase kinase 3 (Homo sapiens) (UniProt Q99759); test: Inhibition of human MEKK3 at 500 nM by HotSpot assay relative to control
T2 sequence (whole entry): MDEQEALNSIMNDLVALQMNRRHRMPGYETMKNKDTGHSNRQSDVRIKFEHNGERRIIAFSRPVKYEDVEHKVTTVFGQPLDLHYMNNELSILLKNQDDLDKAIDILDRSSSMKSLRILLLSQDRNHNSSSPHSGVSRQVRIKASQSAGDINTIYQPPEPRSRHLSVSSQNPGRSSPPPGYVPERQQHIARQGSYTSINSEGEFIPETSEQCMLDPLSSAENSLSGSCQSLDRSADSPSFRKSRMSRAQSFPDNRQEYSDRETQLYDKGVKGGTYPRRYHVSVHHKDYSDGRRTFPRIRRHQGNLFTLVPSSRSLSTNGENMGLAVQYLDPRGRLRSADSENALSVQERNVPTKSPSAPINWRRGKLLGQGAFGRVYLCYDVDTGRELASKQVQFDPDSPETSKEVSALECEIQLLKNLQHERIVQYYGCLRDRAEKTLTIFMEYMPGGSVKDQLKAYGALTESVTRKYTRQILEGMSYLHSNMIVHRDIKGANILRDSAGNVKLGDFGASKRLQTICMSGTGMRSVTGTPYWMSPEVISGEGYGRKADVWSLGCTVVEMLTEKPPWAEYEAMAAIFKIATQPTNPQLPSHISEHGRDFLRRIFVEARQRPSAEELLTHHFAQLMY

[3] = target: Myosin light chain kinase 2, skeletal/cardiac muscle (Homo sapiens) (UniProt Q9H1R3); test: Inhibition of human MYLK2 at 500 nM by HotSpot assay relative to control
Chain of Myosin light chain kinase 2, skeletal/cardiac muscle (Homo sapiens) (Q9H1R3 whole entry): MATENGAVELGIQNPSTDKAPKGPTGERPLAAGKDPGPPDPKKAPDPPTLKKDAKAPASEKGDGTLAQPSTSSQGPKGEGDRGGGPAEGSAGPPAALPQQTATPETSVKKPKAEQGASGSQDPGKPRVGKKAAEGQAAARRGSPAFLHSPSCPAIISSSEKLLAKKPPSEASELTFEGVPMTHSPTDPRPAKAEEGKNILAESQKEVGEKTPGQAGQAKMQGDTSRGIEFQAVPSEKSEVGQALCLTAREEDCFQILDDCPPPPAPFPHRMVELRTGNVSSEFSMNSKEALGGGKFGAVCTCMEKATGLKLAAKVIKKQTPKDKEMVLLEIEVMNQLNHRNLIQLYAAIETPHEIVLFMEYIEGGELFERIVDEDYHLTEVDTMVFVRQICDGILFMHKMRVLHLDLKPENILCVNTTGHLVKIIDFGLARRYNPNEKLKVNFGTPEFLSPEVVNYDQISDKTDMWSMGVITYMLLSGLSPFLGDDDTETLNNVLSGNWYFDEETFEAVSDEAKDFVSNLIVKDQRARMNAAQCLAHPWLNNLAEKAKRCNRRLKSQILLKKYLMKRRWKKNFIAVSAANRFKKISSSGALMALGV

[4] = target: Mitogen-activated protein kinase 14 (Homo sapiens) (UniProt Q16539); test: Inhibition of human MAPK14 at 500 nM by HotSpot assay relative to control
Chain of Mitogen-activated protein kinase 14 (Homo sapiens) (Q16539 whole entry): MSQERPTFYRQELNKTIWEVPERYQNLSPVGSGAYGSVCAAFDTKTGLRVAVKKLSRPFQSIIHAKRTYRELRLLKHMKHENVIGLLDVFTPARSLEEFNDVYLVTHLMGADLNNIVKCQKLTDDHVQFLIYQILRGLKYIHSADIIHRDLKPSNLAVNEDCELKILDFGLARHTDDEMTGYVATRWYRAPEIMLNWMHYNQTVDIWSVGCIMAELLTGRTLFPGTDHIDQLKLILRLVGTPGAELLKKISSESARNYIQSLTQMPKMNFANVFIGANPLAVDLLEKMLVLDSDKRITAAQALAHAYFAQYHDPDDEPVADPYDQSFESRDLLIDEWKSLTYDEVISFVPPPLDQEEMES

[5] = target: Platelet-derived growth factor receptor alpha (Homo sapiens) (UniProt P16234); test: Inhibition of human PDGFRa at 500 nM by HotSpot assay relative to control
Chain of Platelet-derived growth factor receptor alpha (Homo sapiens) (P16234 whole entry): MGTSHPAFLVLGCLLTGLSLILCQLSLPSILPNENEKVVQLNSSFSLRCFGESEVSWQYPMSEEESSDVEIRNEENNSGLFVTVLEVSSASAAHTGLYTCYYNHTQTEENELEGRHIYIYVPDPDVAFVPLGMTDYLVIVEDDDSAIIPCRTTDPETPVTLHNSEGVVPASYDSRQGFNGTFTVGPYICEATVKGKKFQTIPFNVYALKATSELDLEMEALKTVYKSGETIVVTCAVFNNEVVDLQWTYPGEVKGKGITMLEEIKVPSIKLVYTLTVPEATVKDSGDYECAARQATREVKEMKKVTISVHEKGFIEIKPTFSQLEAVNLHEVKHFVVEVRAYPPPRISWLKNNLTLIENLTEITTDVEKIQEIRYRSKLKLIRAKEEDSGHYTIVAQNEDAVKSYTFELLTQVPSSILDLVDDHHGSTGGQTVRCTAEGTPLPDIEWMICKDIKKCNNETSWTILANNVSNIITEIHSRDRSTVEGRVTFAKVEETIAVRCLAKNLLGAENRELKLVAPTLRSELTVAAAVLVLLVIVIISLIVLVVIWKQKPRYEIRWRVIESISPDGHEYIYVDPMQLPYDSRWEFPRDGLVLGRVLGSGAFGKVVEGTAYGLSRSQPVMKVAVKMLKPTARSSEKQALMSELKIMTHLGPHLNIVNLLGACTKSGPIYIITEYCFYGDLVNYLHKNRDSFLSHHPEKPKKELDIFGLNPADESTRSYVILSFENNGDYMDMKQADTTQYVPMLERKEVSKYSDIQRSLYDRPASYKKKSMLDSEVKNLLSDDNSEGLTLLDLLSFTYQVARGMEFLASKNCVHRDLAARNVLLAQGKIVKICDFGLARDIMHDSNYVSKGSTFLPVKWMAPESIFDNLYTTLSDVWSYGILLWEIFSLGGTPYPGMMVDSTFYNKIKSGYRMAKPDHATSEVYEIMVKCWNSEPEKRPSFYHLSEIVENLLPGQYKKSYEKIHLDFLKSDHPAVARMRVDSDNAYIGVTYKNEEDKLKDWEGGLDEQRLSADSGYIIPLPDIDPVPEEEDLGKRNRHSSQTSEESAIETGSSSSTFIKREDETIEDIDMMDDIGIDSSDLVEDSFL

[6] = target: T3, cGMP-dependent protein kinase 2 (Homo sapiens) (UniProt Q13237); test: Inhibition of human PRKG2 at 500 nM by HotSpot assay relative to control
T3 sequence (whole entry): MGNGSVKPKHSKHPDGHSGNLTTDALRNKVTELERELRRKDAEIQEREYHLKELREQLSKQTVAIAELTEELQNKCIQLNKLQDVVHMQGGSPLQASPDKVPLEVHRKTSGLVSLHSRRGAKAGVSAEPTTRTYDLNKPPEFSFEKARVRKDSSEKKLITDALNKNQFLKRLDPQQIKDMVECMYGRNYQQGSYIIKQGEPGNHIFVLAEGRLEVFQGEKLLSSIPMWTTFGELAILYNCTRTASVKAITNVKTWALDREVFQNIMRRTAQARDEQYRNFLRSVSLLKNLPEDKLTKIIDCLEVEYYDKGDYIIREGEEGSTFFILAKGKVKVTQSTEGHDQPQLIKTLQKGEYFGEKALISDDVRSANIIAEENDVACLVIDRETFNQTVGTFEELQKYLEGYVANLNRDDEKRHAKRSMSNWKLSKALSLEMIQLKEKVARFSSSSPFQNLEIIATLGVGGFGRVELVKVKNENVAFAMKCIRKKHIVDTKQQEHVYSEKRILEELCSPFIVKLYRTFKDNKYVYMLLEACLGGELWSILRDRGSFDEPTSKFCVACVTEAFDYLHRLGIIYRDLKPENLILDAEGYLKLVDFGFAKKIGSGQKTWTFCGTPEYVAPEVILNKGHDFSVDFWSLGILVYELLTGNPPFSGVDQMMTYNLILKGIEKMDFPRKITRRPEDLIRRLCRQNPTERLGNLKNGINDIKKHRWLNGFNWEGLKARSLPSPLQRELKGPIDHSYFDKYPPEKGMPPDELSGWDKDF

[7] = target: T4, Serine/threonine-protein kinase Sgk1 (Homo sapiens) (UniProt O00141); test: Inhibition of human SGK1 at 500 nM by HotSpot assay relative to control
T4 sequence (whole entry): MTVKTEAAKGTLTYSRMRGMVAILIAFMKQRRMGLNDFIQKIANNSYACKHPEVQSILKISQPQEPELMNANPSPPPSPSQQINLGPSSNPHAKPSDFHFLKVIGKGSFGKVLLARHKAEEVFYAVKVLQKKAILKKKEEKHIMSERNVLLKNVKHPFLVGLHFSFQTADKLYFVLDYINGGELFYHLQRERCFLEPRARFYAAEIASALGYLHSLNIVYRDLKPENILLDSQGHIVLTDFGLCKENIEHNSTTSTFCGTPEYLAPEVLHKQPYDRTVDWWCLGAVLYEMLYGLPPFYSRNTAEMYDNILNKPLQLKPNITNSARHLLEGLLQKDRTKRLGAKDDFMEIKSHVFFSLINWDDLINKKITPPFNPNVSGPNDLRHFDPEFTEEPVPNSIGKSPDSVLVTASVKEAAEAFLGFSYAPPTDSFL

[8] = Inhibition of inactive form of human Insulin receptor (978 to 1283 residues) C981S mutant kinase domain expressed in baculovirus infected Sf9 cells incubated for 1 hr by [gamma-33P]ATP assay

Structure (SMILES): Nc1n[nH]c2nnc(-c3c(-c4ccccc4)nn4ccccc34)cc12
- inhibition [1]: 2.52%
- inhibition [2]: -9.53%
- inhibition [3]: -0.61%
- inhibition [4]: 5.42%
- inhibition [5]: 0.32%
- inhibition [6]: -3.62%
- inhibition [7]: 0.11%
- pIC50 [8]: 5.27

Structure (SMILES): Oc1n[nH]c2nnc(-c3c(-c4ccccc4)nn4ccccc34)cc12
- inhibition [1]: -0.4%
- inhibition [2]: -4.26%
- inhibition [3]: -2.71%
- inhibition [4]: -1.15%
- inhibition [5]: -1.33%
- inhibition [6]: 1.76%
- inhibition [7]: -4.65%
- pIC50 [8]: 5.74

From ChEMBL document CHEMBL5653615 (J Biol Chem, 2013)
